Results taken from PubChem BioAssay AID1963862 (Molecular Pharmacology Branch, DTP, NCI, 2024).

System: KRAS patient-derived spheroids with HUVEC/MSC, viability
Test: Anticancer human tumor 941728-121-R-J1-PDC patient-derived lung adenocarcinoma cell line growth inhibition [KRAS2]
Conditions: for viability, T/C: stronger effect = lower value
Method in brief: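 KRAS-mutant tumor cells were grown as spheroids with HUVEC endothelial cells and human MSCs as stroma. Targeted agents were tested alone and with KRAS pathway inhibitors. Doses started at or near clinical Cmax, or 10 microM, descending half-log.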

[1] = curve of first compound, second compound 0.0316 µM
[2] = curve of first compound, second compound 0.1 µM
[3] = curve of first compound, second compound 0.316 µM
[4] = curve of first compound, second compound 1 µM
[5] = curve of first compound, second compound 3.16 µM
[6] = second compound 0.0316 µM, first compound 0.0316 µM
[7] = second compound 0.0316 µM, first compound 0.1 µM
[8] = second compound 0.0316 µM, first compound 0.316 µM
[9] = second compound 0.0316 µM, first compound 1 µM
[10] = second compound 0.0316 µM, first compound 3.16 µM
[11] = second compound 0.0316 µM, first compound 10 µM
[12] = second compound 0.1 µM, first compound 0.0316 µM
[13] = second compound 0.1 µM, first compound 0.1 µM
[14] = second compound 0.1 µM, first compound 0.316 µM
[15] = second compound 0.1 µM, first compound 1 µM
[16] = second compound 0.1 µM, first compound 3.16 µM
[17] = second compound 0.1 µM, first compound 10 µM
[18] = second compound 0.316 µM, first compound 0.0316 µM
[19] = second compound 0.316 µM, first compound 0.1 µM
[20] = second compound 0.316 µM, first compound 0.316 µM
[21] = second compound 0.316 µM, first compound 1 µM
[22] = second compound 0.316 µM, first compound 3.16 µM
[23] = second compound 0.316 µM, first compound 10 µM
[24] = second compound 1 µM, first compound 0.0316 µM
[25] = second compound 1 µM, first compound 0.1 µM
[26] = second compound 1 µM, first compound 0.316 µM
[27] = second compound 1 µM, first compound 1 µM
[28] = second compound 1 µM, first compound 3.16 µM
[29] = second compound 1 µM, first compound 10 µM
[30] = second compound 3.16 µM, first compound 0.0316 µM
[31] = second compound 3.16 µM, first compound 0.1 µM
[32] = second compound 3.16 µM, first compound 0.316 µM
[33] = second compound 3.16 µM, first compound 1 µM
[34] = second compound 3.16 µM, first compound 3.16 µM
[35] = second compound 3.16 µM, first compound 10 µM
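Note: spheroids exposed to agents for seven days before readout.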

Row | SMILES | IC50 [2] [nM] | IC50 [3] [nM] | IC50 [4] [nM] | IC50 [5] [nM] | viability, T/C [12] [%] | viability, T/C [13] [%] | viability, T/C [14] [%] | viability, T/C [15] [%] | viability, T/C [18] [%] | viability, T/C [19] [%] | viability, T/C [20] [%] | viability, T/C [21] [%] | viability, T/C [24] [%] | viability, T/C [25] [%] | viability, T/C [26] [%] | viability, T/C [27] [%] | viability, T/C [30] [%] | viability, T/C [31] [%] | viability, T/C [32] [%] | viability, T/C [33] [%] | further results
1 | Cn1ncnc1[C@H]1c2n[nH]c(=O)c3cc(F)cc(c23)N[C@@H]1c1ccc(F)cc1 | – | – | – | – | – | – | – | – | – | – | – | – | – | – | – | – | – | – | – | – | viability, T/C (compound 0.000316 µM): 98.9% [middle of 5 runs]; viability, T/C (compound 0.001 µM): 104% [middle of 5 runs]; viability, T/C (compound 0.00316 µM): 91.5% [middle of 5 runs]; viability, T/C (compound 0.01 µM): 93.2% [middle of 5 runs]; IC50 (curve of compound): > 100 nM
2 | Cn1nccc1Nc1nccc(-c2cc3c(s2)C(C)(C)N(CCN2CCOCC2)C3=O)n1 + C=CC(=O)N1CCN(c2nc(OCC3CCCN3C)nc3c2CCN(c2cccc4cccc(C)c24)C3)CC1CC#N | < 31.6 | < 31.6 | < 31.6 | < 31.6 | 26.6 | 24.5 | 22.1 | 18.8 | 26.1 | 24.2 | 21.4 | 21.9 | 27.1 | 26.8 | 23 | 29.2 | 1.07 | 0.7 | 1.22 | 1.67 | IC50 [1]: < 31.6 nM; viability, T/C [6]: 29.5%; viability, T/C [7]: 28.2%; viability, T/C [8]: 25.1%; viability, T/C [9]: 19.9%; viability, T/C [10]: 22.3%; viability, T/C [11]: 29.2%; viability, T/C [16]: 20.7%; viability, T/C [17]: 28.4%; viability, T/C [22]: 19.1%; viability, T/C [23]: 29.2%; viability, T/C [28]: 22.2%; viability, T/C [29]: 34.1%; viability, T/C [34]: 0.97%; viability, T/C [35]: 0.27%
3 | CCN1CCN(Cc2ccc(Nc3ncc(F)c(-c4cc(F)c5nc(C)n(C(C)C)c5c4)n3)nc2)CC1 + C=CC(=O)N1CCN(c2nc(OCC3CCCN3C)nc3c2CCN(c2cccc4cccc(C)c24)C3)CC1CC#N | < 3.16 | < 3.16 | < 3.16 | < 3.16 | 18.9 | 20.8 | 18.1 | 23.5 | 19.1 | 20.2 | 21.1 | 21.6 | 20.1 | 18.4 | 19.4 | 20 | 0.49 | 0.73 | 0.52 | 0.18 | IC50 [1]: < 3.16 nM; viability, T/C (second compound 0.0316 µM, first compound 0.00316 µM): 24.3%; viability, T/C (second compound 0.0316 µM, first compound 0.01 µM): 25.6%; viability, T/C [6]: 23.5%; viability, T/C [7]: 25.4%; viability, T/C [8]: 26.3%; viability, T/C [9]: 26.9%; viability, T/C (second compound 0.1 µM, first compound 0.00316 µM): 20.9%; viability, T/C (second compound 0.1 µM, first compound 0.01 µM): 21.3%; viability, T/C (second compound 0.316 µM, first compound 0.00316 µM): 21%; viability, T/C (second compound 0.316 µM, first compound 0.01 µM): 21.2%; viability, T/C (second compound 1 µM, first compound 0.00316 µM): 21.3%; viability, T/C (second compound 1 µM, first compound 0.01 µM): 21.4%; viability, T/C (second compound 3.16 µM, first compound 0.00316 µM): 1.17%; viability, T/C (second compound 3.16 µM, first compound 0.01 µM): 1.06%
4 | Cn1nccc1Nc1nccc(-c2cc3c(s2)C(C)(C)N(CCN2CCOCC2)C3=O)n1 | – | – | – | – | – | – | – | – | – | – | – | – | – | – | – | – | – | – | – | – | viability, T/C (compound 0.0316 µM): 90.5% [middle of 5 runs]; viability, T/C (compound 0.316 µM): 57.3% [middle of 5 runs]; viability, T/C (compound 1 µM): 48.8% [middle of 5 runs]; viability, T/C (compound 3.16 µM): 50.1% [middle of 5 runs]; viability, T/C (compound 10 µM): 51.3% [middle of 5 runs]
5 | CCNC(=O)CC1N=C(c2ccc(Cl)cc2)c2cc(OC)ccc2-n2c(C)nnc21 (stereo not given) + C=CC(=O)N1CCN(c2nc(OCC3CCCN3C)nc3c2CCN(c2cccc4cccc(C)c24)C3)CC1CC#N | < 31.6 | 230 | < 31.6 | < 31.6 | 27.5 | 26.7 | 22.2 | 16.4 | 49.5 | 66.1 | 47 | 39.8 | 27.3 | 28 | 21.1 | 16.2 | 1.15 | 1.91 | 0.39 | 1.58 | IC50 [1]: < 31.6 nM; viability, T/C [6]: 31.2%; viability, T/C [7]: 33.5%; viability, T/C [8]: 24.4%; viability, T/C [9]: 20.3%; viability, T/C [10]: 16.1%; viability, T/C [11]: 14.9%; viability, T/C [16]: 12.3%; viability, T/C [17]: 15.4%; viability, T/C [22]: 33.6%; viability, T/C [23]: 33.7%; viability, T/C [28]: 12%; viability, T/C [29]: 10.6%; viability, T/C [34]: 0.42%; viability, T/C [35]: 0.35%
6 | O=C(c1cc(Cc2n[nH]c(=O)c3ccccc23)ccc1F)N1CCN(C(=O)C2CC2)CC1 + CNCc1ccccc1-c1csc(C(C)Nc2nc(C)nc3cc(OC)c(OC)cc23)c1 | > 10000 | < 31.6 | < 31.6 | < 31.6 | 59 | 65.2 | 53.3 | 54.6 | 47.1 | 45.5 | 52.7 | 55.1 | 40.2 | 48 | 47.3 | 51.7 | 0.61 | 1.87 | 0.81 | 0.22 | IC50 (curve of first compound, second compound 10 µM): < 31.6 nM; viability, T/C [16]: 65.6%; viability, T/C [17]: 67.8%; viability, T/C [22]: 51.4%; viability, T/C [23]: 67%; viability, T/C [28]: 49.8%; viability, T/C [29]: 58.5%; viability, T/C [34]: 2.29%; viability, T/C [35]: 0.22%; viability, T/C (second compound 10 µM, first compound 0.0316 µM): 0.42%; viability, T/C (second compound 10 µM, first compound 0.1 µM): 0.09%; viability, T/C (second compound 10 µM, first compound 0.316 µM): 0.09%; viability, T/C (second compound 10 µM, first compound 1 µM): 0.09%; viability, T/C (second compound 10 µM, first compound 3.16 µM): 0.2%; viability, T/C (second compound 10 µM, first compound 10 µM): 0.14%
